Counter-ions that a name gives are not always drawn.
Columns and labels:
BACE2 = molecular target: T1, BACE2 (Rattus norvegicus, UniProt Q6IE75); assay: Assay for BACE inhibition by measuring cellular TMEM27 cleavage (INS-TMEM27 cells, ELISA); format: cell-based; details: INS-TMEM27 (INS1e-derived) cells; shed TMEM27 by ELISA
T1 construct: endogenous cellular BACE2 in the Ins1e rat cell line; endogenous in cells; host or cells: INS-TMEM27 (INS1e-derived rat cell line with doxycycline-inducible full-length human TMEM27)
T1 sequence (Q6IE75 63-514): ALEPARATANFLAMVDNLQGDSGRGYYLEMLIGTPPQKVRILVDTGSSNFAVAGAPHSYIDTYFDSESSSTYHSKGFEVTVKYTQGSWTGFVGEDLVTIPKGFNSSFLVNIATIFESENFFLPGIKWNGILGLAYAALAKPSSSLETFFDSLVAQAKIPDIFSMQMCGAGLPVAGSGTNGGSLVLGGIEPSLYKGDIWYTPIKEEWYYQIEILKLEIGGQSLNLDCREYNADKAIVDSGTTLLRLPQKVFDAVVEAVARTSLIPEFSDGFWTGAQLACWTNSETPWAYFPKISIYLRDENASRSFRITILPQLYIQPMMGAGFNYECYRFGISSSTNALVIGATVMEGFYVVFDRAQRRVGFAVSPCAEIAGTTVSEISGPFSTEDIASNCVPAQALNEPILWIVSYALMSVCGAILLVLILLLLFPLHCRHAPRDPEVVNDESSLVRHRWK
Description: Assay for BACE Inhibition by Measuring Cellular TMEM27 Cleavage:
The assay uses the principle of inhibition of human TMEM27 cleavage by endogenous cellular BACE2 in the Ins1e rat cell line and shedding from the cell surface into the culture medium, followed by detection in an ELISA assay. Inhibition of BACE2 prevents the cleavage and shedding in a dose-dependent manner.
The stable cell line “INS-TMEM27” represents an INS1e-derived cell line with inducible expression (using the TetOn system) of full-length hTMEM27 in a doxycycline-dependent manner. The cells are cultured throughout the experiment in RPMI1640+Glutamax (Invitrogen) Penicillin/Streptomycin, 10% Fetal bovine serum, […], […], 100 micrograms/ml G418 and 100 microgram/ml hygromycin and are grown inadherent culture at 37° C. in a standard CO2 cell culture incubator.
INS-TMEM27 cells are seeded in 96-well plates. After 2 days in culture, BACE2 inhibitor is added in a range of concentrations as required by the assay and after a further two hours, doxycycline is added to a final concentration of 500 ng/ml. The cells are incubated for a further 46 hours and the supernatant harvested for detection of shed TMEM27.
An ELISA assay (using a pair of mouse anti-human-TMEM27 antibodies, raised against the extracellular domain of TMEM27) is used for detection of TMEM27 in the culture medium. An EC50 for BACE2 inhibition is calculated using the ELISA readout for each inhibitor concentration with standard curve-fitting software such as XLFit for the Excel spreadsheet program.

BACE1 = molecular target: T2, BACE1 (Homo sapiens, UniProt P56817); assay: Cellular Aβ-lowering assay (Aβ40 ELISA, HEK293 cells expressing human APP695); format: cell-based; details: HEK293 cells stably expressing human APP695; Aβ40 in supernatant after 18-20 hrs
T2 construct: Human HEK293 cells which are stably transfected with a vector expressing a cDNA of the human APP wt gene (APP695); endogenous in cells; host or cells: HEK293 (human), stably transfected with human APP695 wt only
Protocol: Cellular Aβ-Lowering Assay:
Human HEK293 cells which are stably transfected with a vector expressing a cDNA of the human APP wt gene (APP695) were used to assess the potency of the compounds in a cellular assay. The cells were seeded in 96-well microtiter plates in cell culture medium (Iscove, plus 10% (v/v) fetal bovine serum, glutamine, penicillin/streptomycin) to about 80% confluence and the compounds were added at a 10× concentration in 1/10 volume of medium without FCS containing 8% DMSO (final concentration of DMSO was kept at 0.8% v/v). After 18-20 hrs incubation at 37° C. and 5% CO2 in a humidified incubator the culture supernatant was harvested for the determination of Aβ40 concentrations. 96well ELISA plates (e.g., Nunc MaxiSorb) were coated with monoclonal antibody which specifically recognize the C-terminal end of Aβ40 (Brockhaus et al., NeuroReport 9, 1481-1486; 1998). After blocking of non-specific binding sites with e.g. 1% BSA and washing, the culture supernatants were added in suitable dilutions together with a horseradish peroxidase-coupled Aβ detection antibody (e.g., antibody 4G8, Senetek, Maryland Heights, Mo.) and incubated for 5 to 7 hrs. Subsequently the wells of the microtiter plate were washed extensively with Tris-buffered saline containing 0.05% Tween 20 and the assay was developed with tetramethylbenzidine/H2O2 in citric acid buffer. After stopping the reaction with one volume 1 N H2SO4 the reaction was measured in an ELISA reader at 450 nm wavelength. The concentrations of Aβ in the culture supernatants were calculated from a standard curve obtained with known amounts of pure Aβ peptide.

CYP3A4 = molecular target: T3, CYP3A4 (Homo sapiens, UniProt P08684); assay: CYP inhibition assay, human liver microsomes, midazolam 1′hydroxylase; format: in vitro ADME; details: pooled human liver microsomes, read-out: CYP IC50 3A4
T3 construct: 0.2 mg/ml pooled human liver microsomes; from tissue; host or cells: pooled human liver microsomes
Protocol: (§1) Inhibition of cytochromes P450 (CYPs) 2C9, 2D6 and 3A4 was assessed using human liver microsomes and CYP-selective substrate metabolism reactions. 50 μl incubations were made up containing (finally) 0.2 mg/ml pooled human liver microsomes, 5 μM substrate (diclofenac for CYP2C9 [4′hydroxylase], dextromethorphan for CYP2D6 [O-demethylase] or midazolam for CYP3A4 [1′hydroxylase]), 0.25 μL DMSO containing test inhibitor and NADPH regenerating system. Test inhibitor concentrations of 50, 16.7, 5.6, 1.9, 0.6 and 0.2 μM were assessed in singlicate. Incubations were prewarmed to 37° C. for 10 minutes before initiation by addition of NADPH regenerating system. Incubations were quenched after 5 minutes (20 minutes for dextromethorphan) by addition of 50 μl cold acetonitrile containing 20 ng/ml 4-OH-diclofenac-13C6, 20 ng/mL dextrorphan-D3 and 20 ng/mL 1-OH-midazolam-D4. Quenched incubates were stored at −20° C. for at least 1 hour before centrifugation (20,000×g, 20 minutes). Supernatants were removed and diluted 1:1 with water prior to analysis using a RapidFire sample injector system and API4000 mass spectrometer. Peak areas for substrate, metabolite and stable-labelled metabolite standard were determined using MS/MS. The peak area ratios between the metabolite generated by the enzymatic reaction and the internal standard were used in subsequent calculations. The percentage of (DMSO) control activity was calculated for each incubate and IC50 values estimated by non-linear regression. Sulfaphenazole, quinidine or ketoconazole were tested in each CYP2C9, CYP2D6 or CYP3A4 inhibition experiment, respectively, to ensure assay sensitivity and reproducibility. (Validated assays for human cytochrome P450 activities, R. L. Walsky and R. S. Obach, Drug Metabolism and Disposition 32: 647-660, 2004. and S. Fowler and H. Zhang, The AAPS Journal, Vol. 10, No. 2, 410-424, 2008.)

CYP2C9 = molecular target: T4, CYP2C9 (Homo sapiens, UniProt P11712); assay: CYP inhibition assay, human liver microsomes, diclofenac 4′hydroxylase; format: in vitro ADME; details: pooled human liver microsomes, read-out: CYP IC50 2C9
T4 construct: 0.2 mg/ml pooled human liver microsomes; from tissue; host or cells: pooled human liver microsomes
Protocol: as §1

CYP2D6 = molecular target: T5, CYP2D6 (Homo sapiens, UniProt P10635); assay: CYP inhibition assay, human liver microsomes, dextromethorphan O-demethylase; format: in vitro ADME; details: pooled human liver microsomes, read-out: CYP IC50 2D6
T5 construct: 0.2 mg/ml pooled human liver microsomes; from tissue; host or cells: pooled human liver microsomes
Protocol: as §1

T2 sequence (P56817 46-501): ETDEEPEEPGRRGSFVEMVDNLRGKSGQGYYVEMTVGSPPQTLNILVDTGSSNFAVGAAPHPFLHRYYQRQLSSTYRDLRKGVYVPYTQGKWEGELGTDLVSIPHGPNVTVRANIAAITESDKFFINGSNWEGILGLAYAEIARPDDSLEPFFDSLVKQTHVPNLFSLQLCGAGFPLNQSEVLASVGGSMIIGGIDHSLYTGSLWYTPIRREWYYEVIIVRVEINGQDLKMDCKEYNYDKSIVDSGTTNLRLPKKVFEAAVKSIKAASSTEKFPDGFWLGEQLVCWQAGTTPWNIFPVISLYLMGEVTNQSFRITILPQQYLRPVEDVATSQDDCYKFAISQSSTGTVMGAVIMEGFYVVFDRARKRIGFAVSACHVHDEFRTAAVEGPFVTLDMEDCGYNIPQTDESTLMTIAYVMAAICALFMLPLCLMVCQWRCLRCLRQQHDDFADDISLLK
T5 sequence (P10635 whole entry): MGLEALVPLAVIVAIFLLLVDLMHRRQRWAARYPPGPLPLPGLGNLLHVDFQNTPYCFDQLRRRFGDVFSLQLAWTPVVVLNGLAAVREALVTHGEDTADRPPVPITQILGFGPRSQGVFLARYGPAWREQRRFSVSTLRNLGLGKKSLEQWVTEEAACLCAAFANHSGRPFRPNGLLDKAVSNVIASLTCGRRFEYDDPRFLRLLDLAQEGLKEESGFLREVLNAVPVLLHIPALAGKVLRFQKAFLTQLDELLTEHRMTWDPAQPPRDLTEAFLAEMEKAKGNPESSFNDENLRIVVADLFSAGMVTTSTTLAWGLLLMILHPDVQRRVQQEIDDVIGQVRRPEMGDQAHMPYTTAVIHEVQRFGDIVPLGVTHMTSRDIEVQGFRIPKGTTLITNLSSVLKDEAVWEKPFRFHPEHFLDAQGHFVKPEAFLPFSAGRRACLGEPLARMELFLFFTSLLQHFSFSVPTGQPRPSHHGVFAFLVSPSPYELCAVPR
T3 sequence (P08684 whole entry): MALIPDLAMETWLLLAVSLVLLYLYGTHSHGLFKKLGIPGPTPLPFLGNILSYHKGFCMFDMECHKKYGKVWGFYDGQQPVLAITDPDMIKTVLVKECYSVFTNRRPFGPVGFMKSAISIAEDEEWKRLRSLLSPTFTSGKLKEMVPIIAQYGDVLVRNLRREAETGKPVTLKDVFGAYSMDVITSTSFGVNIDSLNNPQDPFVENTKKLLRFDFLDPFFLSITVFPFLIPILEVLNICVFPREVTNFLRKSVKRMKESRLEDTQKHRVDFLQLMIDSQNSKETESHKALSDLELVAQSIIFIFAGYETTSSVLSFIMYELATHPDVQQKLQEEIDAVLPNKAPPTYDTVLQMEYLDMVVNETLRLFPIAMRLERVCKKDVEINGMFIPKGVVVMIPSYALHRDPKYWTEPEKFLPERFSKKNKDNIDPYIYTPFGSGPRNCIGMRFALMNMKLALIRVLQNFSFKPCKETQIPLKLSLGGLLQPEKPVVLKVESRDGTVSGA
T4 sequence (P11712 whole entry): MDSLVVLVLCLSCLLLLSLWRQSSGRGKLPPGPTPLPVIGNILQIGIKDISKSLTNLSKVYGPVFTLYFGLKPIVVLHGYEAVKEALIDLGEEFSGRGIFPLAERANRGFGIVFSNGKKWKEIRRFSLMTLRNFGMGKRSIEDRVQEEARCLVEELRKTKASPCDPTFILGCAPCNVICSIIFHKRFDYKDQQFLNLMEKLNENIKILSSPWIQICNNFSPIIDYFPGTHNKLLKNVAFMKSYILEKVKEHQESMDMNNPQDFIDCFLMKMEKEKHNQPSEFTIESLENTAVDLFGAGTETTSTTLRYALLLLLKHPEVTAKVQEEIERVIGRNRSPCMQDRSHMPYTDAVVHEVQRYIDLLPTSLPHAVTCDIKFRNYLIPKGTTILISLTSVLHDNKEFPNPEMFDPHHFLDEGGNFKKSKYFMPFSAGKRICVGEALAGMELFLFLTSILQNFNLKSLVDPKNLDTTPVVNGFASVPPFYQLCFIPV

Row | Compound | IC50 (BACE1) [nM] | other results
1 | Cc1cc(Cl)cc(-c2cccc(C3(C)COCC(N)=N3)c2)c1 (stereo not shown) [Example 9, 5-(3′-Chloro-5′-methyl-biphenyl-3-yl)-5-methyl-5,6-dihydro-2H-[1,4]oxazin-3-ylamine] | 2480 | IC50 (BACE2): 1110 nM
2 | Cc1cc(C2(c3cccc(-c4cncc(Cl)c4)c3)COCC(N)=N2)ccc1OC(F)F (stereo not shown) [Example 46, 5-[3-(5-Chloro-pyridin-3-yl)-phenyl]-5-(4-difluoromethoxy-3-methyl-phenyl)-5,6-dihydro-2H-[1,4]oxazin-3-ylamine] | 40 | IC50 (BACE2): 30 nM
3 | CC1(c2cccc(-c3nc4ccc(Cl)cc4o3)c2)COCC(N)=N1 (stereo not shown) [Example 49, 5-[3-(6-Chloro-benzooxazol-2-yl)-phenyl]-5-methyl-5,6-dihydro-2H-[1,4]oxazin-3-ylamine] | 200 | IC50 (BACE2): 200 nM
4 | CC1(c2cccc(-c3cncnc3)c2)COCC(N)=N1 (stereo not shown) [Example 35, 5-Methyl-5-(3-pyrimidin-5-yl-phenyl)-5,6-dihydro-2H-[1,4]oxazin-3-ylamine] | – | IC50 (CYP3A4): > 50000 nM; IC50 (CYP2C9): > 50000 nM; IC50 (CYP2D6): 18000 nM
5 | CCOc1cccc(-c2cccc(C3(C)COCC(N)=N3)c2)c1 (stereo not shown) [Example 30, 5-(3′-Ethoxy-biphenyl-3-yl)-5-methyl-5,6-dihydro-2H-[1,4]oxazin-3-ylamine] | 9100 | –
6 | Cc1cc(Cl)cc(-c2cccc(C3(C)COCC(N)=N3)c2)c1F (stereo not shown) [Example 10, 5-(5′-Chloro-2′-fluoro-3′-methyl-biphenyl-3-yl)-5-methyl-5,6-dihydro-2H-[1,4]oxazin-3-ylamine] | 1500 | –
7 | COc1cncc(-c2cccc(C3(c4ccc(OC(F)F)nc4)COCC(N)=N3)c2)c1 (stereo not shown) [Example 48, 5-(6-Difluoromethoxy-pyridin-3-yl)-5-[3-(5-methoxy-pyridin-3-yl)-phenyl]-5,6-dihydro-2H-[1,4]oxazin-3-ylamine] | 30 | –
8 | CC1(c2cccc(-c3cc(C(F)(F)F)cc(C(F)(F)F)c3)c2)COCC(N)=N1 (stereo not shown) [Example 57, 5-(3′,5′-Bis-trifluoromethyl-biphenyl-3-yl)-5-methyl-5,6-dihydro-2H-[1,4]oxazin-3-ylamine formate] | 6720 | –
9 | COc1cc(Cl)cc(-c2cccc(C3(C)COCC(N)=N3)c2)c1 (stereo not shown) [Example 8, 5-(3′-Chloro-5′-methoxy-biphenyl-3-yl)-5-methyl-5,6-dihydro-2H-[1,4]oxazin-3-ylamine] | 1490 | –
10 | NC1=NC(c2ccc(OC(F)F)nc2)(c2cccc(-c3cncc(Cl)c3)c2)COC1 (stereo not shown) [Example 47, 5-[3-(5-Chloro-pyridin-3-yl)-phenyl]-5-(6-difluoromethoxy-pyridin-3-yl)-5,6-dihydro-2H-[1,4]oxazin-3-ylamine] | 110 | –
11 | COc1cncc(-c2cccc(C3(C)COCC(N)=N3)c2)c1 (stereo not shown) [Example 1, 5-[3-(5-Methoxy-pyridin-3-yl)-phenyl]-5-methyl-5,6-dihydro-2H-[1,4]oxazin-3-ylamine] | 100 | –
12 | COc1cc(-c2cccc(C3(C)COCC(N)=N3)c2)cc(F)c1F (stereo not shown) [Example 56, 5-(4′,5′-Difluoro-3′-methoxy-biphenyl-3-yl)-5-methyl-5,6-dihydro-2H-[1,4]oxazin-3-ylamine formate] | 2550 | –
13 | CC1(c2cccc(-c3ccc(F)c(OCC(F)(F)F)c3)c2)COCC(N)=N1 (stereo not shown) [Example 58, 5-[4′-Fluoro-3′-(2,2,2-trifluoro-ethoxy)-biphenyl-3-yl]-5-methyl-5,6-dihydro-2H-[1,4]oxazin-3-ylamine formate] | 8340 | –
14 | Cc1cc(C2(c3cccc(-c4ccc(Cl)nc4)c3)COCC(N)=N2)ccc1OC(F)F (stereo not shown) [Example 45, 5-[3-(6-Chloro-pyridin-3-yl)-phenyl]-5-(4-difluoromethoxy-3-methyl-phenyl)-5,6-dihydro-2H-[1,4]oxazin-3-ylamine] | 360 | –
15 | CC1(c2cccc(-c3ccc(F)c(Cl)c3)c2)COCC(N)=N1 (stereo not shown) [Example 7, 5-(3′-Chloro-4′-fluoro-biphenyl-3-yl)-5-methyl-5,6-dihydro-2H-[1,4]oxazin-3-ylamine] | 650 | –
16 | CC1(c2cccc(-c3cccc(N)c3)c2)COCC(N)=N1 (stereo not shown) [Example 41, 5-(3′-Amino-biphenyl-3-yl)-5-methyl-5,6-dihydro-2H-[1,4]oxazin-3-ylamine] | 3070 | –
17 | NC1=NC(c2cc(-c3cncnc3)ccc2F)(C(F)F)COC1 (stereo not shown) [Example 51, 5-Difluoromethyl-5-(2-fluoro-5-pyrimidin-5-yl-phenyl)-5,6-dihydro-2H-[1,4]oxazin-3-ylamine] | 770 | –
18 | Cc1cc(C2(c3cccc(-c4cccnc4)c3)COCC(N)=N2)ccc1OC(F)F (stereo not shown) [Example 44, 5-(4-Difluoromethoxy-3-methyl-phenyl)-5-(3-pyridin-3-yl-phenyl)-5,6-dihydro-2H-[1,4]oxazin-3-ylamine] | 60 | –
19 | C[C@@]1(c2cc(-c3cc(Cl)cc(Cl)c3)ccc2F)COCC(N)=N1 [Example 37, (R)-5-(3′,5′-Dichloro-4-fluoro-biphenyl-3-yl)-5-methyl-5,6-dihydro-2H-[1,4]oxazin-3-ylamine] | 510 | IC50 (BACE2): 120 nM

Reference: patent US8399459B2, “1,4 oxazines as BACE1 and/or BACE2 inhibitors” (Hoffmann-La Roche Inc., priority 2011, dated 2013)
